Data reported in US6001997A, “Cephalosporins and homologues, preparations and pharmaceutical compositions” (priority 1990, dated 1999).
≈ marks a conversion by molar mass, not a printed value. Structures can show the parent of a compound that is named as a salt. Where two headings read alike, the source gives them in different places.

Key:
S. aureus (Oxford) = assay: MIC values (minimum inhibitory concentration) against a sample S.aureus organism; format: cell-based; settings: in vitro
Source text: (§1) The following Examples illustrate the preparation of compounds of the invention and intermediates thereto.

E. coli (NCTC 1048) = assay: MIC values (minimum inhibitory concentration) against a sample E.coli organism; format: cell-based
Source text: as §1

[1] = Staphylococcus aureus, read-out: MIC
[2] = Escherichia coli, NCTC1048, in vitro, E. coli (NCTC 1048), read-out: MIC

| MIC (S. aureus (Oxford); [1]) | MIC (E. coli (NCTC 1048); [2]) | Compound | MIC (S. aureus (Oxford)) | MIC (E. coli (NCTC 1048); in vitro, E. coli (NCTC 1048)) | MIC (E. coli (NCTC 1048); Escherichia coli, NCTC1048) |
| --- | --- | --- | --- | --- | --- |
| 1 µg/mL | 0.5 µg/mL | CO/N=C(\C(=O)N[C@@H]1C(=O)N2C(C(=O)O)=C(C3CCCO3)CS[C@H]12)c1csc(N)n1 (stereo partly drawn) [Example 1, Sodium (6R,7R)-7-[2-(2-Aminothiazol-4-yl)-2-(Z)-methoxy-iminoacetamido]-3-[(RS)-tetrahydrofuran-2-yl]ceph-3-em-4-carboxylate] |  |  |  |
| 0.5 µg/mL | 1 µg/mL | CO/N=C(\C(=O)N[C@@H]1C(=O)N2C(C(=O)O)=C([C@H]3CCCO3)CS[C@H]12)c1csc(N)n1 [Example 9, sodium (6R,7R)-7-[2-(2-aminothiazol-4-yl)-2-(Z)-methoxy-iminoacetamido]-3-[(R)-tetrahydrofuran-2-yl]ceph-3-em-4-carboxylate] |  |  |  |
| 0.5 µg/mL | > 32 µg/mL | CO/N=C(\C(=O)N[C@@H]1C(=O)N2C(C(=O)O)=C([C@@H]3CCCO3)CS[C@H]12)c1ccco1 [Example 28, Sodium (6R,7R)-7-[2-(furan-2-yl)-2-(Z)-methoxyimino-acetamido]-3-[(S)-tetrahydrofuran-2-yl]ceph-3-em-4-carboxylate] |  |  |  |
| 0.25 µg/mL (≈ 0.569 µM) | 0.5 µg/mL (≈ 1.14 µM) | Nc1nc(/C(=N/O)C(=O)N[C@@H]2C(=O)N3C(C(=O)O)=C(C4CCCO4)CS[C@H]23)cs1 (stereo partly drawn) [Example 5, (6R,7R)-7-[2-(2-Aminothiazol-4-yl)-2-(Z)-hydroxyiminoacet-amido]-3-[(RS)-tetrahydrofuran-2-yl]ceph-3-em-4-carboxylic acid] |  |  |  |
| 8 µg/mL | 0.25 µg/mL | Nc1nc(/C(=N/OCC(=O)O)C(=O)N[C@@H]2C(=O)N3C(C(=O)O)=C(C4CCCO4)CS[C@H]23)cs1 (stereo partly drawn) [Example 21, (6R,7R)-7-[2-(2-aminothiazol-4-yl)-2-(Z)-carboxymethoxy-iminoacetamido]-3-[(RS)-tetrahydrofuran-2-yl]-ceph-3-em-4-carboxylic acid, disodium salt] |  |  |  |

Continued, compound first:

| Compound | MIC (S. aureus (Oxford); [1]) | MIC (E. coli (NCTC 1048); [2]) | MIC (S. aureus (Oxford)) | MIC (E. coli (NCTC 1048); in vitro, E. coli (NCTC 1048)) | MIC (E. coli (NCTC 1048); Escherichia coli, NCTC1048) |
| --- | --- | --- | --- | --- | --- |
| CO/N=C(\C(=O)N[C@@H]1C(=O)N2C(C(=O)[O-])=C(C3CC[C@@H](C)O3)CS[C@H]12)c1csc(N)n1.[Na+] (mixture of isomers) [Example 27, Sodium (6R,7R)-7-12-(2-aminothiazol-4-yl)-2-(Z)-methoxy-iminoacetamidol-3-[(5R,2SR)-5-methyltetrahydrofuran-2-yl]ceph-3-em-4-carboxylate] |  |  | 1.00 µg/mL | 4.00 µg/mL |  |
| CO/N=C(\C(=O)N[C@@H]1C(=O)N2C(C(=O)[O-])=C(C3CCCCO3)CS[C@H]12)c1csc(N)n1.[Na+] (mixture of isomers) [Example 3, Sodium (6R,7R)-7-[2-(2-Aminothiazol-4-yl)-2-(Z)-methoxyiminoacetamido]-3-[(RS) -tetrahydropyran-2-yl]-ceph-3-em-4-carboxylate] | 1 µg/mL |  |  |  | 2 µg/mL |
| N[C@@H](C(=O)N[C@@H]1C(=O)N2C(C(=O)[O-])=C([C@@H]3CCCO3)CS[C@H]12)c1ccc(O)cc1.[Na+] [Example 22, Sodium (6R,7R)-7-[(R)-2-Amino-2-(4-hydroxyphenyl)acetamido]-3-[(S)-tetrahydrofuran-2-yl]ceph-3-em-4-carboxylate] | 0.25 µg/mL |  |  |  | 8 µg/mL |
| CO/N=C(\C(=O)N[C@@H]1C(=O)N2C(C(=O)O)=C(C3CCOC3)CS[C@H]12)c1csc(N)n1 (some centres unmarked) [Example 13] | 4 µg/mL (≈ 8.82 µM) | 1 µg/mL (≈ 2.21 µM) |  |  |  |
| COC[C@@H]1CCC(C2=C(C(=O)O)N3C(=O)[C@@H](NC(=O)/C(=N\OC)c4csc(N)n4)[C@H]3SC2)O1 (stereo partly drawn) [Example 17, sodium (6R,7R)-7-[2-(2-aminothiazol-4-yl)-2-(Z)-methoxyiminoacetamido]-3-(5-methoxymethyltetrahydrofuran-2-yl)ceph-3-em-4-carboxylate] | 2 µg/mL | 1 µg/mL |  |  |  |
| CO/N=C(\C(=O)N[C@@H]1C(=O)N2C(C(=O)O)=C([C@@H]3CCCO3)CS[C@H]12)c1csc(N)n1 [Example 7, Sodium (6R,7R)-7-[2-(2-aminothiazol-4-yl)-2-(Z)-methoxy-iminoacetamido]-3-[(S)-tetrahydrofuran-2-yl]ceph-3-em-4-carboxylate] | 1 µg/mL | 0.5 µg/mL |  |  |  |
| CC/C=C(\C(=O)N[C@@H]1C(=O)N2C(C(=O)O)=C([C@@H]3CCCO3)CS[C@H]12)c1csc(N)n1 [Example 18, sodium (6R,7R)-7-[2-(2-aminothiazol-4-yl)-(Z)-pent-2-enamido]-3-[(S)-tetrahydrofuran-2-yl]ceph-3-em-4-carboxylate] | 1 µg/mL | 16 µg/mL |  |  |  |
| sodium 7- [2- (2-aminothiazol-4-yl)-2- (Z)-methoxyimino-acetamido]-3- (tetrahydrofuran-2-yl) -1-carba-1-dethiaceph-3-em-4-carboxylate [Example 24] |  |  | 1.00 µg/mL | 0.12 µg/mL |  |
